This note sets out measurements from US12077537B2 (Gilead Sciences, Inc., priority 2020, dated 2024).

The EC50 is the concentration needed to bring the measured effect to its halfway point. Low values mean an effect from little substance, high ones a need for much substance.

This experiment has as its system HIV-IIIb. Put plainly: Antiviral assay in MT4 cells. It counts as cell-based. The note with it: Human immunodeficiency virus 1, MT4, 120 h; MT-4 cells mixed with HIV-IIIb at m.o.i. 0.003; 5 days at 37° C.; CellTiter-Glo luminescence; 50% decrease in signal, a measure of HIV-1 replication. The procedure, abridged:
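Compound, tested at ten 3-fold dilutions in quadruplicate in 10% FBS medium, received MT-4 cells pre-mixed 1 hour with HIV-IIIb (m.o.i. 0.003). Protection was read as luminescent cell viability (CellTiter-Glo) after 5 days' culture at 37° C.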
Background: ATP-based viability assays read luminescence as a measure of living cells.

As to `Cn1nc(NS(C)(=O)=O)c2cccc(-c3cc4sc(N5CCN(C(=O)C(C)(C)N)CC5)nc4nc3[C@H](Cc3cc(F)cc(F)c3)NC(=O)Cn3nc(C(F)(F)F)c4c3C(F)(F)[C@@H]3C[C@H]43)c21` [Example 83, N—((S)-1-(2-(4-(2-amino-2-methylpropanoyl)piperazin-1-yl)-6-(1-methyl-3-(methylsulfonamido)-1H-indazol-7-yl)thiazolo[4,5-b]pyridin-5-yl)-2-(3,5-difluorophenyl)ethyl)-2-((3bS,4aR)-5,5-difluoro-3-(trifluoromethyl)-3b,4,4a,5-tetrahydro-1H-cyclopropa[3,4]cyclopenta[1,2-c]pyrazol-1-yl)acetamide], the EC50 came out at 52.3 nM. Regarding `COCc1nc2nc([C@H](Cc3cc(F)cc(F)c3)NC(=O)Cn3nc(C(F)F)c4c3C(F)(F)[C@@H]3C[C@H]43)c(-c3ccc(Cl)c4c(NS(C)(=O)=O)nn(C)c34)cc2[nH]1` [Example 102, N—((S)-1-(6-(4-chloro-1-methyl-3-(methylsulfonamido)-1H-indazol-7-yl)-2-(methoxymethyl)-1H-imidazo[4,5-b]pyridin-5-yl)-2-(3,5-difluorophenyl)ethyl)-2-((3bS,4aR)-3-(difluoromethyl)-5,5-difluoro-3b,4,4a,5-tetrahydro-1H-cyclopropa[3,4]cyclopenta[1,2-c]pyrazol-1-yl)acetamide], the EC50 was 1.5 nM. In the case of `COCCNc1nc2nc([C@H](Cc3cc(F)cc(F)c3)NC(=O)Cn3nc(C(F)(F)F)c4c3C(F)(F)[C@@H]3C[C@H]43)c(-c3cccc4c(NS(C)(=O)=O)nn(C)c34)cc2s1` [Example 69, 2-((3bS,4aR)-5,5-difluoro-3-(trifluoromethyl)-3b,4,4a,5-tetrahydro-1H-cyclopropa[3,4]cyclopenta[1,2-c]pyrazol-1-yl)-N—((S)-2-(3,5-difluorophenyl)-1-(2-((2-methoxyethyl)amino)-6-(1-methyl-3-(methylsulfonamido)-1H-indazol-7-yl)thiazolo[4,5-b]pyridin-5-yl)ethyl)acetamide] it was 9.2 nM; in that of `NC(=O)c1cc(-c2cc3sc(N4CCN(c5nc6ccccc6[nH]5)CC4)nc3nc2[C@H](Cc2cc(F)cc(F)c2)NC(=O)Cn2nc(C(F)F)c3c2C2CC2CC3)ccc1F` (stereo partly drawn) [Compound 46, 5-(2-(4-(1H-benzo[d]imidazol-2-yl)piperazin-1-yl)-5-((1S)-1-(2-(3-(difluoromethyl)-5,5a,6,6a-tetrahydrocyclopropa[g]indazol-1(4H)-yl)acetamido)-2-(3,5-difluorophenyl)ethyl)thiazolo[4,5-b]pyridin-6-yl)-2-fluorobenzamide], 85.2 nM.

Compound `CN(C)CCNc1nc2nc([C@H](Cc3cc(F)cc(F)c3)NC(=O)Cn3nc(C(F)(F)F)c4c3C(F)(F)[C@@H]3C[C@H]43)c(-c3cccc4c(NS(C)(=O)=O)nn(C)c34)cc2s1` [Example 65, 2-((3bS,4aR)-5,5-difluoro-3-(trifluoromethyl)-3b,4,4a,5-tetrahydro-1H-cyclopropa[3,4]cyclopenta[1,2-c]pyrazol-1-yl)-N—((S)-2-(3,5-difluorophenyl)-1-(2-((2-(dimethylamino)ethyl)amino)-6-(1-methyl-3-(methylsulfonamido)-1H-indazol-7-yl)thiazolo[4,5-b]pyridin-5-yl)ethyl)acetamide] yielded an EC50 of 23.6 nM.

In turn, `Cn1nc(NS(C)(=O)=O)c2c(Cl)ccc(-c3cc4c(nc3[C@H](Cc3cc(F)cc(F)c3)NC(=O)Cn3nc(C(F)(F)F)c5c3C(F)(F)[C@@H]3C[C@H]53)NCC(=O)N4)c21` [Example 107, N—((S)-1-(7-(4-chloro-1-methyl-3-(methylsulfonamido)-1H-indazol-7-yl)-2-oxo-1,2,3,4-tetrahydropyrido[2,3-b]pyrazin-6-yl)-2-(3,5-difluorophenyl)ethyl)-2-((3bS,4aR)-5,5-difluoro-3-(trifluoromethyl)-3b,4,4a,5-tetrahydro-1H-cyclopropa[3,4]cyclopenta[1,2-c]pyrazol-1-yl)acetamide] returned an EC50 of 42.2 nM. In the case of `Cn1nc(N)c2cccc(-c3cc4sc(NCC(C)(C)O)nc4nc3[C@H](Cc3cc(F)cc(F)c3)NC(=O)Cn3nc(C(F)(F)F)c4c3C(F)(F)[C@@H]3C[C@H]43)c21` [Compound 51, N—((S)-1-(6-(3-amino-1-methyl-1H-indazol-7-yl)-2-((2-hydroxy-2-methylpropyl)amino)thiazolo[4,5-b]pyridin-5-yl)-2-(3,5-difluorophenyl)ethyl)-2-((3bS,4aR)-5,5-difluoro-3-(trifluoromethyl)-3b,4,4a,5-tetrahydro-1H-cyclopropa[3,4]cyclopenta[1,2-c]pyrazol-1-yl)acetamide] it was 9.7 nM. As to `Cn1nc(NS(C)(=O)=O)c2cccc(-c3cc4sc(NCCN5CCOCC5)nc4nc3[C@H](Cc3cc(F)cc(F)c3)NC(=O)Cn3nc(C(F)(F)F)c4c3C(F)(F)[C@@H]3C[C@H]43)c21` [Example 75, 2-((3bS,4aR)-5,5-difluoro-3-(trifluoromethyl)-3b,4,4a,5-tetrahydro-1H-cyclopropa[3,4]cyclopenta[1,2-c]pyrazol-1-yl)-N—((S)-2-(3,5-difluorophenyl)-1-(6-(1-methyl-3-(methylsulfonamido)-1H-indazol-7-yl)-2-((2-morpholinoethyl)amino)thiazolo[4,5-b]pyridin-5-yl)ethyl)acetamide], the response was half-maximal at 9.4 nM (EC50). In the case of `NC(=O)c1cc(-c2cc3sc(N4CCN(C5COC5)CC4)nc3nc2[C@H](Cc2cc(F)cc(F)c2)NC(=O)Cn2nc(C(F)(F)F)c3c2C(F)(F)[C@@H]2C[C@H]32)ccc1F` [Compound 24, 5-(5-((S)-1-(2-((3bS,4aR)-5,5-difluoro-3-(trifluoromethyl)-3b,4,4a,5-tetrahydro-1H-cyclopropa[3,4]cyclopenta[1,2-c]pyrazol-1-yl)acetamido)-2-(3,5-difluorophenyl)ethyl)-2-(4-(oxetan-3-yl)piperazin-1-yl)thiazolo[4,5-b]pyridin-6-yl)-2-fluorobenzamide] it was 32.7 nM.

`Cc1c(-c2cc3sc(NCC(C)(C)O)nc3nc2[C@H](Cc2cc(F)cc(F)c2)NC(=O)Cn2nc(C(F)(F)F)c3c2C(F)(F)[C@@H]2C[C@H]32)ccc2n[nH]c(=O)n12` [Compound 54, 2-((3bS,4aR)-5,5-difluoro-3-(trifluoromethyl)-3b,4,4a,5-tetrahydro-1H-cyclopropa[3,4]cyclopenta[1,2-c]pyrazol-1-yl)-N—((S)-2-(3,5-difluorophenyl)-1-(2-((2-hydroxy-2-methylpropyl)amino)-6-(5-methyl-3-oxo-2,3-dihydro-[1,2,4]triazolo[4,3-a]pyridin-6-yl)thiazolo[4,5-b]pyridin-5-yl)ethyl)acetamide] returned an EC50 of 26.2 nM. The compound `NC(=O)c1cc(-c2cc3sc(N4CCN(C5COC5)CC4)nc3nc2[C@H](Cc2cc(F)cc(F)c2)NC(=O)Cn2nc(C(F)F)c3c2C(F)(F)CCC3(F)F)ccc1F` [Compound 5] registered an EC50 of 76.9 nM. In the case of `Cn1nc(NS(C)(=O)=O)c2cccc(-c3cc4[nH]c(C5CC5)nc4nc3[C@H](Cc3cc(F)cc(F)c3)NC(=O)Cn3nc(C(F)(F)F)c4c3C(F)(F)[C@@H]3C[C@H]43)c21` [Example 92, N—((S)-1-(2-cyclopropyl-6-(1-methyl-3-(methylsulfonamido)-1H-indazol-7-yl)-1H-imidazo[4,5-b]pyridin-5-yl)-2-(3,5-difluorophenyl)ethyl)-2-((3bS,4aR)-5,5-difluoro-3-(trifluoromethyl)-3b,4,4a,5-tetrahydro-1H-cyclopropa[3,4]cyclopenta[1,2-c]pyrazol-1-yl)acetamide] it was 14.8 nM; in that of `CC(C)(O)C#CC1(Cl)Nc2nc(C(Cc3cc(F)cc(F)c3)NC(=O)Cn3nc(C(F)F)c4c3C(F)(F)CCC4(F)F)c(-c3ccc(F)c(C(N)=O)c3)cc2S1` (stereo not shown) [Compound 22, 5-(2-chloro-5-(1-(2-(3-(difluoromethyl)-4,4,7,7-tetrafluoro-4,5,6,7-tetrahydro-1H-indazol-1-yl)acetamido)-2-(3,5-difluorophenyl)ethyl)-2-(3-hydroxy-3-methylbut-1-yn-1-yl)-2,3-dihydrothiazolo[4,5-b]pyridin-6-yl)-2-fluorobenzamide], 184 nM; in that of `O=C(Cn1nc(C(F)(F)F)c2c1C(F)(F)[C@@H]1C[C@H]21)N[C@@H](Cc1cc(F)cc(F)c1)c1nc2nc(N3CCN(c4ccncc4)CC3)sc2cc1-c1ccc2c(c1)C(=O)NC2` [Compound 36, 2-((3bS,4aR)-5,5-difluoro-3-(trifluoromethyl)-3b,4,4a,5-tetrahydro-1H-cyclopropa[3,4]cyclopenta[1,2-c]pyrazol-1-yl)-N—((S)-2-(3,5-difluorophenyl)-1-(6-(3-oxoisoindolin-5-yl)-2-(4-(pyridin-4-yl)piperazin-1-yl)thiazolo[4,5-b]pyridin-5-yl)ethyl)acetamide], 28.7 nM. `NC(=O)c1cc(-c2cc3sc(NCCN4CCOCC4)nc3nc2[C@H](Cc2cc(F)cc(F)c2)NC(=O)Cn2nc(C(F)F)c3c2C(F)(F)CCC3(F)F)ccc1F` [Compound 8, (S)-5-(5-(1-(2-(3-(difluoromethyl)-4,4,7,7-tetrafluoro-4,5,6,7-tetrahydro-1H-indazol-1-yl)acetamido)-2-(3,5-difluorophenyl)ethyl)-2-((2-morpholinoethyl)amino)thiazolo[4,5-b]pyridin-6-yl)-2-fluorobenzamide] yielded an EC50 of 162 nM. For the compound `Cn1nc(NS(C)(=O)=O)c2c(Cl)ccc(-c3cc4c(nc3[C@H](Cc3cc(F)cc(F)c3)NC(=O)Cn3nc(C(F)F)c5c3C(F)(F)[C@@H]3C[C@H]53)CCC(=O)N4)c21` [Compound 136, N—((S)-1-(3-(4-chloro-1-methyl-3-(methylsulfonamido)-1H-indazol-7-yl)-6-oxo-5,6,7,8-tetrahydro-1,5-naphthyridin-2-yl)-2-(3,5-difluorophenyl)ethyl)-2-((3bS,4aR)-3-(difluoromethyl)-5,5-difluoro-3b,4,4a,5-tetrahydro-1H-cyclopropa[3,4]cyclopenta[1,2-c]pyrazol-1-yl)acetamide], the midpoint of the response, the EC50, lay at 4.3 nM.
